Data as given in ChEMBL document CHEMBL1201862, “PubChem BioAssay data set” (2004).
Active and inactive are the calls of the source.

Legend:
[1] = biological target: Lytic switch protein BZLF1 (Epstein-Barr virus (strain B95-8) (HHV-4) (Human herpesvirus 4), UniProt P03206); test: EBV ZTA inhibitors, dose response, counter-screen for EBNA-1 inhibitor project, biochemical, fluorescence polarization, Epstein-Barr virus, 1536-well (AID 2377); parameters: species or system human gammaherpesvirus 4;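 further: fluorescence polarization of Cy5-labelled ZRE DNA probe bound by purified Zta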
Chain of Lytic switch protein BZLF1 (P03206 whole entry): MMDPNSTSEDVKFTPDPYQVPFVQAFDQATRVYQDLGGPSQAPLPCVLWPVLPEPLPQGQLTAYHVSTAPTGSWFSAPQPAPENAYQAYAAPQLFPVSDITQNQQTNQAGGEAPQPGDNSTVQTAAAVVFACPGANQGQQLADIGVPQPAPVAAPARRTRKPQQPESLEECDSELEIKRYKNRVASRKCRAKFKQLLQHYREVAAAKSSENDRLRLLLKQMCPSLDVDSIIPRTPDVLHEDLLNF

[2] = biological target: Epstein-Barr nuclear antigen 1 (Epstein-Barr virus (strain B95-8) (HHV-4) (Human herpesvirus 4), UniProt P03211); test: EBNA-1 inhibitors, dose response, biochemical, fluorescence polarization, 1536-well (AID 2381); parameters: species or system human gammaherpesvirus 4;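 further: fluorescence polarization of a Cy5 DNA probe bound by EBNA-1 protein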
Chain of Epstein-Barr nuclear antigen 1 (P03211 whole entry): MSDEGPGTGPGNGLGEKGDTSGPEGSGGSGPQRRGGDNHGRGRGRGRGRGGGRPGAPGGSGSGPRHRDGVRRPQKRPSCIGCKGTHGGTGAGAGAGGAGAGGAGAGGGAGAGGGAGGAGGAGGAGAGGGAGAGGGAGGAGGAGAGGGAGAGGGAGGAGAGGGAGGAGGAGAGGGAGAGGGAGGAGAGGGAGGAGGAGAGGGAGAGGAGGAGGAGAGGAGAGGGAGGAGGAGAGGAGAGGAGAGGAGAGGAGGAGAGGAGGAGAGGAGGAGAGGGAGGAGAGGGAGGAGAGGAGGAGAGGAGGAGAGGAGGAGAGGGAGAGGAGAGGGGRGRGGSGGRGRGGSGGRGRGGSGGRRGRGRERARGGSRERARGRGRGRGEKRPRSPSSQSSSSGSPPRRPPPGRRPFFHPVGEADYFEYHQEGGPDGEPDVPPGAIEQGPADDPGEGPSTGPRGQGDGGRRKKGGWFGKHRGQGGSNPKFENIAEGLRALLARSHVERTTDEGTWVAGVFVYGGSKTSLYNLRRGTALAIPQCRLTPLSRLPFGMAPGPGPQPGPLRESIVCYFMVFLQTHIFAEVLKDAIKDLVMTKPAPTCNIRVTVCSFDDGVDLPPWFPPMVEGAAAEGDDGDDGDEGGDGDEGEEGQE

Cytochrome P450 2C9 = Cytochrome P450 2C9 (Homo sapiens, UniProt P11712)
Chain of Cytochrome P450 2C9 (P11712 whole entry): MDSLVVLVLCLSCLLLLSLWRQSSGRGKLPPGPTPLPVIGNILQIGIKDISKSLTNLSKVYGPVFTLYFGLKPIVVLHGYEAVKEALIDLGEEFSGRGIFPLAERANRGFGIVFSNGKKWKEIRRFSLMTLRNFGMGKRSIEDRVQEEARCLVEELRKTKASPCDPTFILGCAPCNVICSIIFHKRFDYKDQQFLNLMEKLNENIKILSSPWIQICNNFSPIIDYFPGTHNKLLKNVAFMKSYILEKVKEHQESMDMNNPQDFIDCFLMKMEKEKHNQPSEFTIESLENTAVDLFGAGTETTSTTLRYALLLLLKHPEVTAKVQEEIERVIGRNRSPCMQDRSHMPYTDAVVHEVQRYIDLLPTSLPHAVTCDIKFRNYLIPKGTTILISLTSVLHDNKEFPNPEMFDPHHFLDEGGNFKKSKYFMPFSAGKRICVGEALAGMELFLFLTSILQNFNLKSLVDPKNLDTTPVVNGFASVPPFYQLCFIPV

cells [3] = test: cells
[4] = biological target: Voltage-gated inwardly rectifying potassium channel KCNH2 (Homo sapiens, UniProt Q12809); test: hERG protection from proarrhythmic block, potency, dose response, cell-based, thallium flux (AID 2121); format: ADME
Chain of Voltage-gated inwardly rectifying potassium channel KCNH2 (Q12809 whole entry): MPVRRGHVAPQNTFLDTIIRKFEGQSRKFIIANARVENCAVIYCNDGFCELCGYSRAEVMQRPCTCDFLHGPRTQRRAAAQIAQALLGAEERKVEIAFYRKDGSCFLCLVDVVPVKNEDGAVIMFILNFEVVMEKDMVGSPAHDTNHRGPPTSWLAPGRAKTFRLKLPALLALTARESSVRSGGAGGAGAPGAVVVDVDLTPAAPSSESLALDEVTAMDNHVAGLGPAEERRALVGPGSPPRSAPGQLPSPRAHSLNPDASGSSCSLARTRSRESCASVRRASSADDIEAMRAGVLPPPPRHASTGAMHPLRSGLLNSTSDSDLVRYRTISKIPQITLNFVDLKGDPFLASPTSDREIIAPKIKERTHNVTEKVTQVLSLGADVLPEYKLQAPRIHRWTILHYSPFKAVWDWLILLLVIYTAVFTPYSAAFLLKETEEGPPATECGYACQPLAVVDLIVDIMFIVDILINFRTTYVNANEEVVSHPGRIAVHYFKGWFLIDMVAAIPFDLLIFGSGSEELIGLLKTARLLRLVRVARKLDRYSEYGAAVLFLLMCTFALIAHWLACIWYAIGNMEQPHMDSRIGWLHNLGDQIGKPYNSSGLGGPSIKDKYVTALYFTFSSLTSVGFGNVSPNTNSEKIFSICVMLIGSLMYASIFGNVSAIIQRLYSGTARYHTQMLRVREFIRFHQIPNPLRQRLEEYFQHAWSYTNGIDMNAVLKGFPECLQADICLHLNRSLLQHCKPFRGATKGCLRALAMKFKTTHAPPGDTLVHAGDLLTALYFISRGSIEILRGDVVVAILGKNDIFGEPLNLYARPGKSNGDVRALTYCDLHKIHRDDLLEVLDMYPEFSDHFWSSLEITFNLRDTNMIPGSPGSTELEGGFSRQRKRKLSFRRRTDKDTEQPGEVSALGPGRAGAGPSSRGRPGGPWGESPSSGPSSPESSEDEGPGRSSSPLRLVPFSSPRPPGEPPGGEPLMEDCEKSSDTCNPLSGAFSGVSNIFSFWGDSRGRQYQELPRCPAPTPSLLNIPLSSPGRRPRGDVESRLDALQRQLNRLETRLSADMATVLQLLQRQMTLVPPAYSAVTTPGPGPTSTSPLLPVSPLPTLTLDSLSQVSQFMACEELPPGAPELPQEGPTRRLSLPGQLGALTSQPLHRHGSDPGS

[5] = microbe, parasite or virus in culture; format: functional; details: Mycobacterium tuberculosis
[6] = Luminescence Cell-Based Dose Retest to Confirm Inhibitors of Cancer Stem Cells. [Related pubchem assays (depositor defined):AID2717, AID2721]; format: functional; details: Homo sapiens
[7] = HEp-2 cell cytotoxicity, dose response, cytotoxicity control for RSV inhibitor project, HTS (AID 2410); format: functional; details: human respiratory syncytial virus
Bcl-2-related protein A1 [8] = biological target: T1, Bcl-2-related protein A1 (Mus musculus, UniProt Q07440); test: Bfl-1 binding inhibitors, SAR follow-up, biochemical, fluorescence polarization (AID 1070)
T1 sequence (Q07440 whole entry): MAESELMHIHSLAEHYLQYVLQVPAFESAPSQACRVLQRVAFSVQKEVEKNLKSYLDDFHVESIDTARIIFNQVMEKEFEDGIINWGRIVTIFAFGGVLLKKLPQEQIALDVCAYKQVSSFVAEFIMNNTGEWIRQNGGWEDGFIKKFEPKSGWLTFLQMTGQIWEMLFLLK

Bcl-2-related protein A1 [9] = biological target: T1, Bcl-2-related protein A1; test: Bfl-1 inhibitors blocking BH3 peptide binding, confirmation, biochemical, TR-FRET, mouse Bfl-1 (AID 621);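 further: TR-FRET binding of GST-Bfl-1 to FITC-labelled Bid peptide via terbium antibody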
HEK293 [10] = test: cells; details: Homo sapiens
Estrogen receptor [11] = biological target: T2, Estrogen receptor (Homo sapiens, UniProt P03372);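 further: potency for inhibiting coactivator peptide recruitment to the receptor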
T2 sequence (P03372 whole entry): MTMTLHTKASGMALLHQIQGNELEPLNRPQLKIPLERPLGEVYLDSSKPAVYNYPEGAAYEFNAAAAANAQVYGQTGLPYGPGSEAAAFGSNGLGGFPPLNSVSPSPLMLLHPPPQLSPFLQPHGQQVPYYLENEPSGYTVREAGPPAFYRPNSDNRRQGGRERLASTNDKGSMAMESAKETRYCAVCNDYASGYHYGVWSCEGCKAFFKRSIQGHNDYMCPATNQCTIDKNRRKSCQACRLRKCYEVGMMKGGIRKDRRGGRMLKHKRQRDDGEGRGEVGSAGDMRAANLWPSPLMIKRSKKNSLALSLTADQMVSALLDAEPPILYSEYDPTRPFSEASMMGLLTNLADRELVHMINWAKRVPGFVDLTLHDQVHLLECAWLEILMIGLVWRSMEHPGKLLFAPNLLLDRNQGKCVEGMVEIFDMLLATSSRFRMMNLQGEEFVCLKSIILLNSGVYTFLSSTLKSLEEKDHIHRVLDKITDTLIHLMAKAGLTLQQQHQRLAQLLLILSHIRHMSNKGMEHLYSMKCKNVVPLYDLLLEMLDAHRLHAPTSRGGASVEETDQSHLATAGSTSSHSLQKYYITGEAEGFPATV

HEK293 [12] = test: cells; details: Homo sapiens; remark: listed apart in the source
Estrogen receptor [13] = biological target: T2, Estrogen receptor; test: potentiators of ERα–SRC-1 coactivator binding, dose response, biochemical, TR-FRET, ERα LBD (AID 737)
[14] = A Cell Based Secondary Assay To Explore Cytotoxicity of Compounds that Sensitize Mycobacterium Tuberculosis to Beta-Lactam Antibiotics.; format: functional
[15] = Luminescent dose response cell-based high throughput screening assay for inhibitors of the Janus kinase 2 mutant JAK2V617F. [Related pubchem assays: 1446 (Primary screen.), 1521 (Confirmation assay.), 1486 (Counter screen.)]; format: functional
[16] = biological target: FAD-linked sulfhydryl oxidase ALR (Homo sapiens, UniProt P55789); test: inhibitors of human ALR sulfhydryl oxidase, dose response, biochemical, H2O2 detection, luminescence, cherry-pick (AID 493248)
Chain of FAD-linked sulfhydryl oxidase ALR (P55789 whole entry): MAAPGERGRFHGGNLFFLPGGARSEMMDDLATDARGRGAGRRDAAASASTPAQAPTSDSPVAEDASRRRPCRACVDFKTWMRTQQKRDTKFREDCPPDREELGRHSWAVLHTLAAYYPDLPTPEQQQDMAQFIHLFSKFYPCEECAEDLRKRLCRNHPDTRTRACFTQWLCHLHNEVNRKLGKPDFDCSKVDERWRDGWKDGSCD

[17] = biological target: T3, Rac GTPase-activating protein 1 (Homo sapiens, UniProt Q9H0H5); test: MgcRacGAP GTPase-activating activity inhibitors, confirmation, biochemical, ADP Hunter fluorescence, primary and confirmatory (AID 624330); format: functional
T3 sequence (Q9H0H5 whole entry): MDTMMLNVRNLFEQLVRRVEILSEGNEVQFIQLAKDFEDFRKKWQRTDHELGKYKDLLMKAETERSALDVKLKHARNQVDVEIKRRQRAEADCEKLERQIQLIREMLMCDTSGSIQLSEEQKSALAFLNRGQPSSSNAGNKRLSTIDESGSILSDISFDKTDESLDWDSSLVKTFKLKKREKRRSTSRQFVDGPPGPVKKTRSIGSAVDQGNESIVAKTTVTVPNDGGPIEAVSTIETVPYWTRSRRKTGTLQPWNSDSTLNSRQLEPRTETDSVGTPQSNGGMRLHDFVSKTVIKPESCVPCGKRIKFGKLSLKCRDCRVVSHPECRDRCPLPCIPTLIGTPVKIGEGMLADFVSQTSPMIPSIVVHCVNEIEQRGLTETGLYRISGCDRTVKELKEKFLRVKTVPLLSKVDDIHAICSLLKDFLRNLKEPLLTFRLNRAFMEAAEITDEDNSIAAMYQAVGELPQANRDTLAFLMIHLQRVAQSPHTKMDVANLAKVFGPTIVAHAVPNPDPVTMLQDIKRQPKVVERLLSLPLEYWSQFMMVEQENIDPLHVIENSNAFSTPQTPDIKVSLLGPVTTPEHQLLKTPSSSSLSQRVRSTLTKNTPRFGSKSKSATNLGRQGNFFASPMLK

[18] = cytotoxicity toward DRD oncogenic fibroblasts, dose response, cell-based, non-viral oncogenic, luminescence (AID 1934); format: functional; details: Homo sapiens
BJ [19] = test: cytotoxicity toward Ras-transformed BJeLR fibroblasts, dose response, cell-based, alamar blue fluorescence, cherrypicked samples (AID 2631); format: functional; details: Homo sapiens;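 further: confirmatory dose-response assay in RAS-dependent BJ fibroblasts engineered with TERT, LT and ST, with cytotoxicity read by fluorescence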
BJ [20] = test: cells; format: functional, cell-based; details: Homo sapiens
BJ [21] = test: cytotoxicity toward BJ-TERT-LT-ST fibroblasts, dose response, cell-based, RAS-independent, luminescence (AID 1935); format: functional; details: Homo sapiens;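 further: BJ fibroblasts immortalized with TERT plus LT and ST oncogenes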
BJ [22] = test: cytotoxicity toward BJ-TERT fibroblasts, dose response, cell-based, RAS-independent, luminescence (AID 1933); format: functional; details: Homo sapiens
cells [23] = format: functional
Galanin receptor type 2 = Galanin receptor type 2 (Homo sapiens, UniProt O43603); test: Dose Response cell-based high-throughput screening assay to identify antagonists of galanin receptor 2 (GALR2). [Related pubchem assays: 828, 866 ]; format: functional
Chain of Galanin receptor type 2 (O43603 whole entry): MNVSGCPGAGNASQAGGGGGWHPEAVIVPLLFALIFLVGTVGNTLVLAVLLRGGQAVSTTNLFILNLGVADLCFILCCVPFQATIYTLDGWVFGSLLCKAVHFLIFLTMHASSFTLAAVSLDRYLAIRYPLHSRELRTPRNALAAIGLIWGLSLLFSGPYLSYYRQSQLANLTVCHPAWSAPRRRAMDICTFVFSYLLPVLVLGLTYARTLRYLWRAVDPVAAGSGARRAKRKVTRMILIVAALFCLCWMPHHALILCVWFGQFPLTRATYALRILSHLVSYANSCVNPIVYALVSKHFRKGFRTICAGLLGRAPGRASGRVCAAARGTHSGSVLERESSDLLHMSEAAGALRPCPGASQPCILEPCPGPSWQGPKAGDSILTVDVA

Estrogen receptor beta [24] = biological target: T4, Estrogen receptor beta (Homo sapiens, UniProt Q92731);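 further: recombinant ER-beta bound to coactivator SRC1 peptide in presence of estradiol agonist; inhibitors block coactivator peptide binding and lower the FRET signal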
T4 sequence (Q92731 whole entry): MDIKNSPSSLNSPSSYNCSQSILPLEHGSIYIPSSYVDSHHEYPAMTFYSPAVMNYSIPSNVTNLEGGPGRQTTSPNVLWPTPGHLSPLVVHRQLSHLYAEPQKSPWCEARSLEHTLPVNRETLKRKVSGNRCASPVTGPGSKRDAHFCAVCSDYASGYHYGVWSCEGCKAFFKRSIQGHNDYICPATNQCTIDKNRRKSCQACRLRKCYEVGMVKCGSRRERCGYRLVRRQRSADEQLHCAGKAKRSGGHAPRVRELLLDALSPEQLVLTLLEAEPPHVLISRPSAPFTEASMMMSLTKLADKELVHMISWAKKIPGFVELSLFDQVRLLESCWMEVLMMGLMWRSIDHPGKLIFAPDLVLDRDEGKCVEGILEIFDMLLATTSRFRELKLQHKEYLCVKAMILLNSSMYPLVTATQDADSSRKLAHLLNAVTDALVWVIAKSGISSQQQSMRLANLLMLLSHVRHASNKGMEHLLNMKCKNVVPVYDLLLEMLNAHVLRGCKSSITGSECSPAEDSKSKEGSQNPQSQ

Estrogen receptor beta [25] = biological target: T4, Estrogen receptor beta; test: ERβ–SRC-3 coactivator interaction inhibitors, confirmation, orthogonal assay, biochemical, ELISA, streptavidin-HRP readout (AID 1060)
[26] = biological target: 5-hydroxytryptamine receptor 1A (Homo sapiens, UniProt P08908); format: functional
Chain of 5-hydroxytryptamine receptor 1A (P08908 whole entry, the tested form may be a part): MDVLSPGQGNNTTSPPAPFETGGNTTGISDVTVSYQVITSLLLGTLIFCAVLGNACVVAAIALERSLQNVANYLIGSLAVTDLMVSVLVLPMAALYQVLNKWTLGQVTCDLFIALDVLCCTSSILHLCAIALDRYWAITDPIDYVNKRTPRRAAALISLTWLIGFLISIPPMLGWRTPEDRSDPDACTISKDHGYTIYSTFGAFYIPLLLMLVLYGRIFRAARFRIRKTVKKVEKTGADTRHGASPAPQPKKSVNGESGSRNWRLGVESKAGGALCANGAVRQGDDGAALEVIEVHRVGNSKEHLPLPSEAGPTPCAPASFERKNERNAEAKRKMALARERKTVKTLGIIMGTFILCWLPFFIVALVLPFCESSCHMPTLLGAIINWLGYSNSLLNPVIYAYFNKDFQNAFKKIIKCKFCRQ

[27] = Fluorescence-based cell-based high throughput dose response assay for inhibitors of the interaction of nucleotide-binding oligomerization domain containing 2 (NOD2) and the receptor-interacting serine-threonine kinase 2 (RIPK2).; format: functional; details: Homo sapiens
[28] = biological target: T5, Heat shock factor protein 1 (Mus musculus, UniProt P38532); test: HSF1 potentiators in luciferase reporter cells, confirmation, cell-based, NIH3T3, luminescence, dose retest (AID 435004); format: functional;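 further: stress induced by proteasome inhibitor MG132 added 30 min after compound; luciferase reporter driven by HSF1 response element in NIH3T3 cells; actives raise luminescence as potentiators of the MG132 stress response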
T5 sequence (P38532 whole entry): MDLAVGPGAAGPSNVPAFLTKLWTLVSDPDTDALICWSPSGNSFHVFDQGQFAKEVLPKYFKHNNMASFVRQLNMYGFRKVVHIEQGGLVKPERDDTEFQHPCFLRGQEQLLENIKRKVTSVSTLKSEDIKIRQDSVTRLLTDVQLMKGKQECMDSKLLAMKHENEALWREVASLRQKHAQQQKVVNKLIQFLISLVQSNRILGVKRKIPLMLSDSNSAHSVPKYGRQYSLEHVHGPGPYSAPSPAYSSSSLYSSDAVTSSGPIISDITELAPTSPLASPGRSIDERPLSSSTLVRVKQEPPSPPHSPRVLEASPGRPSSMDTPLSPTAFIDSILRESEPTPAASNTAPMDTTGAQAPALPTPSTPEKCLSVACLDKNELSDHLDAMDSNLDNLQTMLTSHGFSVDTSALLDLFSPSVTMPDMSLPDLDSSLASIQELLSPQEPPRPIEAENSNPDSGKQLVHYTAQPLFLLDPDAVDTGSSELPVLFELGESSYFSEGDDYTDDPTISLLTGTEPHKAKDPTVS

[29] = half-maximal inhibitory concentration for glucagon-like peptide-1 release, STC-1 cell line, dose-response (AID 1117345); format: functional, cell-based
[30] = Glucagon-like peptide 1 release potency, NCI-H716 cell line, dose-response, half-maximal inhibitory concentration (AID 1117344); format: functional, cell-based

With `Cn1cc(/C=C2/SC(=O)N(CC(=O)Nc3ccc4c(c3)OCO4)C2=O)c2ccccc21` the IC50 [1] was > 111 µM (not active), the IC50 [2] was 5.72 µM (active) and the AC50 (Cytochrome P450 2C9) was 7.08 µM (inconclusive).

In the case of `COc1ccc(C(C(=O)NC2CCCC2)N(C(=O)c2snc(C(N)=O)c2N)c2cc(C)ccc2OC)cc1OC` (stereo not drawn), the IC50 (cells [3]) is reported as 6.11 µM (active).

In the case of `O=C(NC(=S)Nc1ccc(N2CCCCC2)c(Cl)c1)c1cccs1`, the EC50 [4] is reported as 0.2 µM (active), the CC50 [5] is reported as > 40 µM (active) and the AC50 [6] is reported as 6.16 µM (active). For the same compound, the CC50 [7] was 17.3 µM (active).

In the case of `c1ccc(-n2nnc(-c3cnc4ccccc4c3)n2)cc1`, the IC50 (Bcl-2-related protein A1 [8]) is reported as > 100 µM (not active) and the IC50 (Bcl-2-related protein A1 [9]) is reported as > 100 µM (not active).

With `Clc1ncccc1-c1nnn(-c2ccccc2)n1` the IC50 (Bcl-2-related protein A1 [8]) was > 100 µM (not active) and the IC50 (Bcl-2-related protein A1 [9]) was > 100 µM (not active).

In the case of `O=C(Nc1ccccc1[N+](=O)[O-])C1=C(O)CCn2c1nc1ccccc12`, the EC50 (HEK293 [10]) is reported as > 59.7 µM (inactive), the IC50 (Estrogen receptor [11]) is reported as 18.6 µM (active) and the EC50 (HEK293 [12]) is reported as > 59.7 µM (inactive).

In the case of `CCOc1ccccc1N1C(=O)NC(=O)C(CCc2ccncc2)(CCc2ccncc2)C1=O`, the EC50 (Estrogen receptor [13]) is reported as 12.7 µM (active).

With `Cc1ccc(C(=O)c2oc3ccccc3c2NC(=O)c2cc(-c3cc(C)ccc3O)[nH]n2)cc1` the CC50 [14] was 7.97 µM (active).

In the case of `CN(c1ccccc1)S(=O)(=O)c1cccc(C(=O)NCCc2ccc(O)c(O)c2)c1`, the IC50 [15] is reported as 7.29 µM (active), the AC50 [16] is reported as 4.37 µM (active) and the IC50 [17] is reported as 69.2 µM (active).

In the case of `Nc1nc(CCl)nc(N(c2ccccc2)c2ccccc2)n1`, the IC50 [15] is reported as 0.721 µM (active), the EC50 [18] is reported as 0.674 µM (active) and the EC50 (BJ [19]) is reported as 0.229 µM (active). The EC50 (BJ [20]) was 2.65 µM (active), the EC50 (BJ [21]) was 12.1 µM (inconclusive) and the EC50 (BJ [22]) was 0.652 µM (inconclusive).

For `CC1CCCCC1NC(=S)NC(=O)c1sc2ccccc2c1Cl` (stereo not drawn), the EC50 [4] was 4.87 µM (active).

For `COc1ccc(NC(=O)CSc2nc(N)c(C(=O)Nc3ccc(N(C)C)cc3)s2)cc1`, the CC50 [14] was > 40 µM (active).

With `CCCCC1CCC(C(=O)Nc2ccc(S(=O)(=O)Nc3nccs3)cc2)CC1` (stereo not drawn) the IC50 (cells [3]) was 36.5 µM (active), the CC50 [7] was 34.3 µM (active) and the IC50 (cells [23]) was 14.5 µM (active).

In the case of `COc1ccc(NC(=O)NCc2ccc3c(c2)OCO3)c(OC)c1`, the IC50 [1] is reported as > 111 µM (not active) and the IC50 [2] is reported as 18.3 µM (not active).

For `Cc1ccc(S(=O)(=O)NCc2ccncc2)cc1`, the IC50 (Galanin receptor type 2) was > 42 µM (not active).

With `O=C(COC(=O)C1CC2C=CC1C2)NCc1ccco1` (stereo not drawn) the IC50 (Estrogen receptor beta [24]) was 7.15 µM (active) and the IC50 (Estrogen receptor beta [25]) was > 109 µM (not active).

In the case of `CN1CC=C(c2c[nH]c3ccccc23)CC1`, the EC50 [26] is reported as 12 µM (not active).

With `COc1cc(/C=C/[N+](=O)[O-])ccc1O` the EC50 [18] was 10.3 µM (active), the EC50 (BJ [19]) was 4.46 µM (active) and the IC50 (Galanin receptor type 2) was > 4.6 µM (not active). For the same compound, the EC50 (BJ [20]) was 15.5 µM (active), the IC50 [27] was 4.84 µM (active) and the EC50 (BJ [21]) was > 75 µM (inconclusive). The EC50 [28] was 8.18 µM (active) and the EC50 (BJ [22]) was 10.6 µM (inconclusive).

In the case of `C/C=C(/C(=C/C)c1ccc(O)cc1)c1ccc(O)cc1` [DIENESTROL], the IC50 [29] is reported as > 40 µM (inactive), the EC50 (Estrogen receptor [13]) is reported as 13.2 µM (active) and the IC50 [30] is reported as > 40 µM (inactive).
